Values of other authors in patent publication US7666887B2, “Stable, neutral pH, VOC-free biocidal compositions of 1,2-benzisothiazolin-3-one” (ISP Investments, Inc., priority 2004, dated 2010).

Tests used:
[1] = in some individuals

Compound: O=c1[nH]sc2ccccc12 [BIT, 1,2-benzisothiazolin-3-one]
- aqueous solubility: low
- sensitization [1]: can cause sensitization
